According to patent US7501397B2, “Helical peptidomimetics with enhanced activity” (The Brigham and Women's Hospital, Inc., priority 2004, dated 2009):
Non-standard residues stand in square brackets, D forms with d. Residues, ends and D or L forms follow the SMILES beside them. *: point of attachment. Boc = CC(C)(C)OC(=O)*; Aib = CC(C)(N)C(=O)O; Bn = c1ccc(C*)cc1

molecular target: γ-secretase (Homo sapiens, UniProt P49768); assay: cell-free γ-secretase assay using detergent-solubilized membranes from HeLa cells and a recombinant APP-based substrate; format: biochemical; parameters: detergent-solubilized membranes from HeLa cells; endogenous in cells; host or cells: HeLa cells (detergent-solubilized membranes); conditions: 50% inhibition of Aβ40 production; at least three independent experiments; read-out: Cell-free Assay IC50
Method: Compounds were tested in a γ-secretase assay using detergent-solubilized membranes from HeLa cells and a recombinant APP-based substrate (Table 2, 18). […] Moreover, the γ-secretase inhibition appears to show dependence on length.

Compound	IC50 [nM]
CC[C@@H](C)[C@@H](NC(=O)[C@H](NC(=O)[C@H](NC(=O)OC(C)(C)C)C(C)C)C(C)C)C(=O)NC(C)(C)C(=O)N[C@@H](C(=O)N[C@@H](C(=O)NC(C)(C)C(=O)N[C@@H](C(=O)N[C@@H](C(=O)NC(C)(C)C(=O)OC)[C@H](C)CC)C(C)C)C(C)C)[C@H](C)OCc1ccccc1 [SEQ ID NO:15 D-peptide, Boc-Val-Val-Ile-Aib-Thr(OBz)-Val-Aib-Val-Ile-Aib-OMe] (Boc-[dV][dV][dI][Aib][dT](Bn)[dV][Aib][dV][dI][Aib]-OMe)	25 ± 3
CC[C@H](C)[C@H](NC(=O)[C@@H](NC(=O)[C@@H](NC(=O)OC(C)(C)C)C(C)C)C(C)C)C(=O)NC(C)(C)C(=O)N[C@H](C(=O)N[C@H](C(=O)NC(C)(C)C(=O)N[C@H](C(=O)N[C@H](C(=O)NC(C)(C)C(=O)OC)[C@@H](C)CC)C(C)C)C(C)C)[C@@H](C)OCc1ccccc1 [SEQ ID NO:15 L-peptide, Boc-Val-Val-Ile-Aib-Thr(OBz)-Val-Aib-Val-Ile-Aib-OMe] (Boc-VVI[Aib]T(Bn)V[Aib]VI[Aib]-OMe)	10000
CC[C@@H](C)[C@@H](NC(=O)[C@H](NC(=O)[C@H](NC(=O)C(C)(C)NC(=O)OC(C)(C)C)C(C)C)C(C)C)C(=O)NC(C)(C)C(=O)N[C@@H](C(=O)N[C@@H](C(=O)NC(C)(C)C(=O)N[C@@H](C(=O)N[C@@H](C(=O)NC(C)(C)C(=O)OC)[C@H](C)CC)C(C)C)C(C)C)[C@H](C)OCc1ccccc1 [SEQ ID NO:16 D-peptide, Boc-Aib-Val-Val-Ile-Aib-Thr(OBz)-Val-Aib-Val-Ile-Aib-OMe] (Boc-[Aib][dV][dV][dI][Aib][dT](Bn)[dV][Aib][dV][dI][Aib]-OMe)	28 ± 19
CC[C@H](C)[C@H](NC(=O)[C@@H](NC(=O)[C@@H](NC(=O)C(C)(C)NC(=O)OC(C)(C)C)C(C)C)C(C)C)C(=O)NC(C)(C)C(=O)N[C@H](C(=O)N[C@H](C(=O)NC(C)(C)C(=O)N[C@H](C(=O)N[C@H](C(=O)NC(C)(C)C(=O)OC)[C@@H](C)CC)C(C)C)C(C)C)[C@@H](C)OCc1ccccc1 [SEQ ID NO:16 L-peptide, Boc-Aib-Val-Val-Ile-Aib-Thr(OBz)-Val-Aib-Val-Ile-Aib-OMe] (Boc-[Aib]VVI[Aib]T(Bn)V[Aib]VI[Aib]-OMe)	3100
CC[C@@H](C)[C@@H](NC(=O)[C@H](NC(=O)[C@H](NC(=O)C(C)(C)NC(=O)CNC(=O)OC(C)(C)C)C(C)C)C(C)C)C(=O)NC(C)(C)C(=O)N[C@@H](C(=O)N[C@@H](C(=O)NC(C)(C)C(=O)N[C@@H](C(=O)N[C@@H](C(=O)NC(C)(C)C(=O)OC)[C@H](C)CC)C(C)C)C(C)C)[C@H](C)OCc1ccccc1 [SEQ ID NO:17 D-peptide, Boc-Gly-Aib-Val-Val-Ile-Aib-Thr(OBz)-Val-Aib-Val-Ile-Aib-OMe] (Boc-G[Aib][dV][dV][dI][Aib][dT](Bn)[dV][Aib][dV][dI][Aib]-OMe)	12 ± 4
CC[C@H](C)[C@H](NC(=O)[C@@H](NC(=O)[C@@H](NC(=O)C(C)(C)NC(=O)CNC(=O)OC(C)(C)C)C(C)C)C(C)C)C(=O)NC(C)(C)C(=O)N[C@H](C(=O)N[C@H](C(=O)NC(C)(C)C(=O)N[C@H](C(=O)N[C@H](C(=O)NC(C)(C)C(=O)OC)[C@@H](C)CC)C(C)C)C(C)C)[C@@H](C)OCc1ccccc1 [SEQ ID NO:17 L-peptide, Boc-Gly-Aib-Val-Val-Ile-Aib-Thr(OBz)-Val-Aib-Val-Ile-Aib-OMe] (Boc-G[Aib]VVI[Aib]T(Bn)V[Aib]VI[Aib]-OMe)	360
CC[C@H](C)[C@H](NC(=O)[C@@H](NC(=O)[C@@H](NC(=O)C(C)(C)NC(=O)CNC(=O)[C@@H](NC(=O)OC(C)(C)C)C(C)C)C(C)C)C(C)C)C(=O)NC(C)(C)C(=O)N[C@H](C(=O)N[C@H](C(=O)NC(C)(C)C(=O)N[C@H](C(=O)N[C@H](C(=O)NC(C)(C)C(=O)OC)[C@@H](C)CC)C(C)C)C(C)C)[C@@H](C)OCc1ccccc1 [SEQ ID NO:18 L-peptide, Boc-Val-Gly-Aib-Val-Val-Ile-Aib-Thr(OBz)-Val-Aib-Val-Ile-Aib-OMe] (Boc-VG[Aib]VVI[Aib]T(Bn)V[Aib]VI[Aib]-OMe)	780
CC[C@@H](C)[C@@H](NC(=O)[C@H](NC(=O)[C@H](NC(=O)C(C)(C)NC(=O)CNC(=O)[C@H](NC(=O)C(C)(C)NC(=O)OC(C)(C)C)C(C)C)C(C)C)C(C)C)C(=O)NC(C)(C)C(=O)N[C@@H](C(=O)N[C@@H](C(=O)NC(C)(C)C(=O)N[C@@H](C(=O)N[C@@H](C(=O)NC(C)(C)C(=O)OC)[C@H](C)CC)C(C)C)C(C)C)[C@H](C)OCc1ccccc1 [SEQ ID NO:19 D-peptide, Boc-Aib-Val-Gly-Aib-Val-Val-Ile-Aib-Thr(OBz)-Val-Aib-Val-Ile-Aib-OMe] (Boc-[Aib][dV]G[Aib][dV][dV][dI][Aib][dT](Bn)[dV][Aib][dV][dI][Aib]-OMe)	14 ± 10
CC[C@H](C)[C@H](NC(=O)[C@@H](NC(=O)[C@@H](NC(=O)C(C)(C)NC(=O)CNC(=O)[C@@H](NC(=O)C(C)(C)NC(=O)OC(C)(C)C)C(C)C)C(C)C)C(C)C)C(=O)NC(C)(C)C(=O)N[C@H](C(=O)N[C@H](C(=O)NC(C)(C)C(=O)N[C@H](C(=O)N[C@H](C(=O)NC(C)(C)C(=O)OC)[C@@H](C)CC)C(C)C)C(C)C)[C@@H](C)OCc1ccccc1 [SEQ ID NO:19 L-peptide, Boc-Aib-Val-Gly-Aib-Val-Val-Ile-Aib-Thr(OBz)-Val-Aib-Val-Ile-Aib-OMe] (Boc-[Aib]VG[Aib]VVI[Aib]T(Bn)V[Aib]VI[Aib]-OMe)	910 ± 170
CC[C@@H](C)[C@@H](NC(=O)[C@H](NC(=O)[C@H](NC(=O)C(C)(C)NC(=O)CNC(=O)[C@H](NC(=O)C(C)(C)NC(=O)[C@@H](CC(C)C)NC(=O)OC(C)(C)C)C(C)C)C(C)C)C(C)C)C(=O)NC(C)(C)C(=O)N[C@@H](C(=O)N[C@@H](C(=O)NC(C)(C)C(=O)N[C@@H](C(=O)N[C@@H](C(=O)NC(C)(C)C(=O)OC)[C@H](C)CC)C(C)C)C(C)C)[C@H](C)OCc1ccccc1 [SEQ ID NO:20 D-peptide, Boc-Leu-Aib-Val-Gly-Aib-Val-Val-Ile-Aib-Thr(OBz)-Val-Aib-Val-Ile-Aib-OMe] (Boc-[dL][Aib][dV]G[Aib][dV][dV][dI][Aib][dT](Bn)[dV][Aib][dV][dI][Aib]-OMe)	16 ± 7
CC[C@H](C)[C@H](NC(=O)[C@@H](NC(=O)[C@@H](NC(=O)C(C)(C)NC(=O)CNC(=O)[C@@H](NC(=O)C(C)(C)NC(=O)[C@H](CC(C)C)NC(=O)OC(C)(C)C)C(C)C)C(C)C)C(C)C)C(=O)NC(C)(C)C(=O)N[C@H](C(=O)N[C@H](C(=O)NC(C)(C)C(=O)N[C@H](C(=O)N[C@H](C(=O)NC(C)(C)C(=O)OC)[C@@H](C)CC)C(C)C)C(C)C)[C@@H](C)OCc1ccccc1 [SEQ ID NO:20 L-peptide, Boc-Leu-Aib-Val-Gly-Aib-Val-Val-Ile-Aib-Thr(OBz)-Val-Aib-Val-Ile-Aib-OMe] (Boc-L[Aib]VG[Aib]VVI[Aib]T(Bn)V[Aib]VI[Aib]-OMe)	4700
CC[C@@H](C)[C@@H](NC(=O)[C@H](NC(=O)[C@H](NC(=O)C(C)(C)NC(=O)CNC(=O)[C@H](NC(=O)C(C)(C)NC(=O)[C@@H](CC(C)C)NC(=O)CNC(=O)OC(C)(C)C)C(C)C)C(C)C)C(C)C)C(=O)NC(C)(C)C(=O)N[C@@H](C(=O)N[C@@H](C(=O)NC(C)(C)C(=O)N[C@@H](C(=O)N[C@@H](C(=O)NC(C)(C)C(=O)OC)[C@H](C)CC)C(C)C)C(C)C)[C@H](C)OCc1ccccc1 [SEQ ID NO:21 D-peptide, Boc-Gly-Leu-Aib-Val-Gly-Aib-Val-Val-Ile-Aib-Thr(OBz)-Val-Aib-Val-Ile-Aib-OMe] (Boc-G[dL][Aib][dV]G[Aib][dV][dV][dI][Aib][dT](Bn)[dV][Aib][dV][dI][Aib]-OMe)	26 ± 21
CC[C@H](C)[C@H](NC(=O)[C@@H](NC(=O)[C@@H](NC(=O)C(C)(C)NC(=O)CNC(=O)[C@@H](NC(=O)C(C)(C)NC(=O)[C@H](CC(C)C)NC(=O)CNC(=O)OC(C)(C)C)C(C)C)C(C)C)C(C)C)C(=O)NC(C)(C)C(=O)N[C@H](C(=O)N[C@H](C(=O)NC(C)(C)C(=O)N[C@H](C(=O)N[C@H](C(=O)NC(C)(C)C(=O)OC)[C@@H](C)CC)C(C)C)C(C)C)[C@@H](C)OCc1ccccc1 [SEQ ID NO:21 L-peptide, Boc-Gly-Leu-Aib-Val-Gly-Aib-Val-Val-Ile-Aib-Thr(OBz)-Val-Aib-Val-Ile-Aib-OMe] (Boc-GL[Aib]VG[Aib]VVI[Aib]T(Bn)V[Aib]VI[Aib]-OMe)	11000

same assay, conditions: L-series, cell-free assay

Compound	increase in potency over the reference L-decapeptide having SEQ ID NO:10 [fold]
CC[C@H](C)[C@H](NC(=O)[C@@H](NC(=O)[C@@H](NC(=O)C(C)(C)NC(=O)CNC(=O)OC(C)(C)C)C(C)C)C(C)C)C(=O)NC(C)(C)C(=O)N[C@H](C(=O)N[C@H](C(=O)NC(C)(C)C(=O)N[C@H](C(=O)N[C@H](C(=O)NC(C)(C)C(=O)OC)[C@@H](C)CC)C(C)C)C(C)C)[C@@H](C)OCc1ccccc1 [SEQ ID NO:17 L-peptide, Boc-Gly-Aib-Val-Val-Ile-Aib-Thr(OBz)-Val-Aib-Val-Ile-Aib-OMe] (Boc-G[Aib]VVI[Aib]T(Bn)V[Aib]VI[Aib]-OMe)	~100
CC[C@H](C)[C@H](NC(=O)[C@@H](NC(=O)[C@@H](NC(=O)C(C)(C)NC(=O)CNC(=O)[C@@H](NC(=O)OC(C)(C)C)C(C)C)C(C)C)C(C)C)C(=O)NC(C)(C)C(=O)N[C@H](C(=O)N[C@H](C(=O)NC(C)(C)C(=O)N[C@H](C(=O)N[C@H](C(=O)NC(C)(C)C(=O)OC)[C@@H](C)CC)C(C)C)C(C)C)[C@@H](C)OCc1ccccc1 [SEQ ID NO:18 L-peptide, Boc-Val-Gly-Aib-Val-Val-Ile-Aib-Thr(OBz)-Val-Aib-Val-Ile-Aib-OMe] (Boc-VG[Aib]VVI[Aib]T(Bn)V[Aib]VI[Aib]-OMe)	~40

system: Aβ production in Chinese hamster ovary (CHO) cells stably transfected with human APP; assay: cell-based assay of total Aβ production in CHO cells stably transfected with human APP; conditions: CHO cells stably transfected with human APP; total Aβ; read-out: IC50 (concentration that reduced production of total Aβ by 50%)
Text: Based on the helical model for the APP transmembrane domain, short peptides were designed to adopt a similar conformation that block γ-secretase activity. Judicious replacement of selected residues of short APP-derived peptides with 2-aminoisobutyric acid (Aib), a known helix-inducing amino acid (19, 20), provided peptides that, in principle, mimic the γ-secretase cleavage site on one face of the helix, with Aib residues on the other face. Aib-containing peptides were identified that inhibit Aβ production in APP-transfected cells with 50 percent inhibitory concentrations (IC50's) as low as 2 μM. […] The crystal structure of this compound has been determined, and the peptide is fully helical (19). In certain embodiments the compounds of the invention have structures that are based on the partial APP sequence Val-Gly-Gly-Val-Val-Ile-Ala-Thr-Val-Ile-Val-Ile (SEQ ID NO:12; see FIG. 1). Basing the structures of the compounds of the invention on the partial APP sequence could enhance in vivo specificity of the compounds.
The top set of peptidomimetics (SEQ ID NOs: 1-5) was designed considering the cleavage leading to Aβ42, and the bottom set (SEQ ID NOs: 6-10) was designed considering the cleavage site leading to Aβ40. IC50 is the concentration of compound that reduced production of total Aβ by 50% in a cell-based assay using Chinese hamster ovary (CHO) cells stably transfected with human APP.
Starting from the reference D-decapeptide having SEQ ID NO:10 (IC50=90 nM), the enantiomers of the helical peptide L-series were tested for inhibitory activity. […] This greater than 40-fold loss of activity compared to the cell-free assay may be due to the need to enter into and/or cross cell membranes or some susceptibility to metabolic degradation.

Compound	IC50 [nM]
Boc-Aib-Ile-Ala-Thr(OBz)-Aib-Ile-Val-Aib-OMe [SEQ ID NO:3]	10000
Boc-Aib-Val-Val-Ile-Aib-Thr(OBz)-Val-Aib-OMe [SEQ ID NO:8]	6000
